Results from patent US20080004253A1, “Thiazolopyrimidine modulators of TRPV1” (priority 2006, published 2008).

Experiments:
human TRPV1 = molecular target: T1, human TRPV1 (Homo sapiens, UniProt Q8NER1); assay: Functional assay: block of capsaicin-induced Ca2+ influx, human assay (hTRPV1/HEK293, FLIPR); format: cell-based; details: hTRPV1/HEK293 cells, 150 nM capsaicin challenge, Fluo-3 fluorescence; mean; > value = solubility limit in assay medium
T1 construct: expressed in transfected cells; host or cells: HEK293 (hTRPV1/HEK293), zeocin selection
How it was run: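 HEK293 cells stably expressing human TRPV1, fluo3-loaded, preincubated 30 min with compound (serial 3-fold dilutions from 10 μM, duplicate) in 20 μM Ca2+ buffer. Capsaicin response taken as fluo3 fluorescence change before vs 100 s after agonist; IC50 by non-linear regression, mean values; free base or TFA salt.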

rat TRPV1 = molecular target: T2, rat TRPV1 (Rattus norvegicus, UniProt O35433); assay: Functional assay: block of capsaicin-induced Ca2+ influx, rat assay (rTRPV1/HEK293, FLIPR); format: cell-based; details: rTRPV1/HEK293 cells, capsaicin challenge, Fluo-3 fluorescence; mean; > value = solubility limit in assay medium
T2 construct: expressed in transfected cells; host or cells: HEK293 (rTRPV1/HEK293), geneticin selection
How it was run: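 Compounds, as free base or TFA salt, tested from 10 μM in three-fold steps on rTRPV1-transfected HEK293 cells, with 30 min preincubation in low-calcium (20 μM) buffer. Capsaicin-evoked Ca2+ influx measured by FLIPR fluo3 signal before and 100 s after addition. Averaged IC50 from non-linear fits.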

T1 sequence (Q8NER1 whole entry): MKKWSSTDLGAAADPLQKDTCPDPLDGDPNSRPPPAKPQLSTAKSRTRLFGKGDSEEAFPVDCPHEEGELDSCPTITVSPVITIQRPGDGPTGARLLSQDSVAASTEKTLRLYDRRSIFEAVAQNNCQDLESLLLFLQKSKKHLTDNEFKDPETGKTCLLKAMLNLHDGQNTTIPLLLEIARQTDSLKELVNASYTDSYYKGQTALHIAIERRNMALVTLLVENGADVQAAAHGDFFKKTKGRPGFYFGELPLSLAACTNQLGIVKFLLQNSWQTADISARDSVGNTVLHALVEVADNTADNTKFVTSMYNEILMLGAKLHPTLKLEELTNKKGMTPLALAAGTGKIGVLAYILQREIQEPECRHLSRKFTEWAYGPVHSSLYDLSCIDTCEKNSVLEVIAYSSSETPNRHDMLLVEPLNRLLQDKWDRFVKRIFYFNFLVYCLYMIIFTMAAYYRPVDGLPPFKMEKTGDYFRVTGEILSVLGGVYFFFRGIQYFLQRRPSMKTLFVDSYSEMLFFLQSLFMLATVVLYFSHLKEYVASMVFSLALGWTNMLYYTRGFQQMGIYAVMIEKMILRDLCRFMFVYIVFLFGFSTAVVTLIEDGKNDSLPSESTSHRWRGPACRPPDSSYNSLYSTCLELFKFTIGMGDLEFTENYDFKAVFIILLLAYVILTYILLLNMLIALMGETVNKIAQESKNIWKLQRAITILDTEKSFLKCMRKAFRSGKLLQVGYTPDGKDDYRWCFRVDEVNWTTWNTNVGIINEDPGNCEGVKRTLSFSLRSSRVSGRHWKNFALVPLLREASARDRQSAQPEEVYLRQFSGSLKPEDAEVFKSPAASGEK
T2 sequence (O35433 whole entry): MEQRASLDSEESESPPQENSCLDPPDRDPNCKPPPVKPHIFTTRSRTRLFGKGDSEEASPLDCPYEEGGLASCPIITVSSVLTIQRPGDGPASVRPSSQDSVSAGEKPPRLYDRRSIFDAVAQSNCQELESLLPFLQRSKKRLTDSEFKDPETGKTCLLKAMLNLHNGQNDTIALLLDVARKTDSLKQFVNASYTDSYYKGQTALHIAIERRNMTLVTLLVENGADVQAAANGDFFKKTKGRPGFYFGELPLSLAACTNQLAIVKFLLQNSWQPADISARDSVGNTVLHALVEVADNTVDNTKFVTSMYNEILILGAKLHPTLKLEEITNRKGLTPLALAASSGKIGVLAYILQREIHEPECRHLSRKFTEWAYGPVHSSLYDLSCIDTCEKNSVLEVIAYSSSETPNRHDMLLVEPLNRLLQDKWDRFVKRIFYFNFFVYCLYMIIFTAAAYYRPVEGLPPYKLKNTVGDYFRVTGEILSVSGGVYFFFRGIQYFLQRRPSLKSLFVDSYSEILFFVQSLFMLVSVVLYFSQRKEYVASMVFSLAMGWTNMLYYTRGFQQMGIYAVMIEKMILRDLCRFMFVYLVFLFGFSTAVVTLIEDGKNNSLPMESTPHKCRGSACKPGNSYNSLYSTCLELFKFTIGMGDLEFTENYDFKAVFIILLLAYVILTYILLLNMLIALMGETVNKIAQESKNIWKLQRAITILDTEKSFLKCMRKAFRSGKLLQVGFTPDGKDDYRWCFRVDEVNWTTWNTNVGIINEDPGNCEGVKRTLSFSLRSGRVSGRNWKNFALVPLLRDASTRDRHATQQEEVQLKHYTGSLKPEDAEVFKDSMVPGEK

With `FC(F)(F)c1ccc(Nc2ncnc3sc(Nc4ccccc4Cl)nc23)cn1` [Example 220, N^2-(2-Chlorophenyl)-N^7-[6-(trifluoromethyl)pyridin-3-yl][1,3]thiazolo[5,4-d]pyrimidine-2,7-diamine] the IC50 (human TRPV1) was 43 nM and the IC50 (rat TRPV1) was 38 nM.
With `Cc1nc(Nc2ccc(S(=O)(=O)N3CCCC3)cc2)c2nc(Nc3c(Cl)cccc3Cl)sc2n1` [Example 73, N^2-(2,6-Dichloro-phenyl)-5-methyl-N^7-[4-(pyrrolidine-1-sulfonyl)-phenyl]-thiazolo[5,4-d]pyrimidine-2,7-diamine] the IC50 (human TRPV1) was 1 nM and the IC50 (rat TRPV1) was 1 nM.
For `COc1nc(Nc2ccc(C(F)(F)F)cc2)c2nc(Nc3c(Cl)cccc3Cl)sc2n1` [Example 55, N^2-(2,6-Dichloro-phenyl)-5-methoxy-N^7-(4-trifluoromethyl-phenyl)-thiazolo[5,4d]pyrimidine-2,7-diamine], the IC50 (human TRPV1) was > 20000 nM and the IC50 (rat TRPV1) was > 20000 nM.
`Cc1cccc(C)c1Nc1nc2c(Nc3ccc(Cl)cc3)ncnc2s1` [Example 132, N^7-(4-Chloro-phenyl)-N^2-(2,6-dimethyl-phenyl)-thiazolo[5,4-d]pyrimidine-2,7-diamine] gave an IC50 (human TRPV1) of 172 nM and an IC50 (rat TRPV1) of 73 nM.
`FC(F)(F)c1ccc(Nc2nc(NCC3CC3)nc3sc(Nc4c(Cl)cccc4Cl)nc23)cc1` [Example 62, N^5-Cyclopropylmethyl-N^2-(2,6-dichloro-phenyl)-N^7-(4-trifluoromethyl-phenyl)-thiazolo[5,4-d]pyrimidine-2,5,7-triamine] gave an IC50 (human TRPV1) of 20 nM and an IC50 (rat TRPV1) of 4 nM.
`CNCCNc1nc(Nc2ccc(C(F)(F)F)cc2)c2nc(Nc3c(Cl)cccc3Cl)sc2n1` [Example 181, N^2-(2,6-Dichloro-phenyl)-N^5-(2-methylamino-ethyl)-N^7-(4-trifluoromethyl-phenyl)-thiazolo[5,4-d]pyrimidine-2,5,7-triamine] was tested, and the IC50 (human TRPV1) was 6440 nM and the IC50 (rat TRPV1) was > 20000 nM.
Work on `Cc1cccc(C)c1Nc1nc2c(Nc3ccc(C(C)(C)C#N)cc3)ncnc2s1` [Example 32, 2-{4-[2-(2,6-Dimethyl-phenylamino)-thiazolo[5,4-d]pyrimidin-7-ylamino]-phenyl}-2-methyl-propionitrile] yielded an IC50 (human TRPV1) of 51 nM and an IC50 (rat TRPV1) of 8 nM.
For `FC(F)(F)c1ccc(Nc2ncnc3sc(Nc4c(Cl)cc(CN5CCC5)cc4Cl)nc23)cc1` [Example 239, N^2-(4-Azetidin-1-ylmethyl-2,6-dichloro-phenyl)-N^7-(4-trifluoromethy-phenyl)-thiazolo[5,4-d]pyrimidine-2,7-diamine], the IC50 (human TRPV1) was 3420 nM and the IC50 (rat TRPV1) was 3750 nM.
With `CCc1ccc(Nc2ncnc3sc(Nc4c(C)cccc4C)nc23)cc1` [Example 45, N^2-(2,6-Dimethyl-phenyl)-N^7-(4-ethyl-phenyl)-thiazolo[5,4-d]pyrimidine-2,7-diamine] the IC50 (human TRPV1) was 70 nM and the IC50 (rat TRPV1) was 37 nM.
In the case of `Cc1cccc(C)c1Nc1nc2c(Nc3ccc(NS(C)(=O)=O)cc3)ncnc2s1` [Example 175, N-{4-[2-(2,6-Dimethyl-phenylamino)-thiazolo[5,4-d]pyrimidin-7-ylamino]-phenyl}-methanesulfonamide], the IC50 (human TRPV1) is reported as > 20000 nM and the IC50 (rat TRPV1) is reported as > 20000 nM.
With `Cc1nc(Nc2ccc3c(c2)N(C)CCC3(C)C)c2nc(Nc3c(Cl)cccc3Cl)sc2n1` [Example 107, N^2-(2,6-Dichloro-phenyl)-5-methyl-N^7-(1,4,4-trimethyl-1,2,3,4-tetrahydro-quinolin-7-yl)-thiazolo[5,4-d]pyrimidine-2,7-diamine] the IC50 (human TRPV1) was 25 nM and the IC50 (rat TRPV1) was 2 nM.
`O=C(O)c1cc(Cl)c(Nc2nc3c(Nc4ccc(C(F)(F)F)cc4)ncnc3s2)c(Cl)c1` [Example 243, 3,5-Dichloro-4-[7-(4-trifluoromethyl-phenylamino)-thiazolo[5,4-d]pyrimidin-2-ylamino]-benzoic acid] gave an IC50 (human TRPV1) of 4610 nM and an IC50 (rat TRPV1) of 6540 nM.
In the case of `Cc1nc(Nc2ccc(C(F)(F)F)nc2)c2nc(Nc3c(C)cccc3C)sc2n1` [Example 246, N^2-(2,6-Dimethyl-phenyl)-5-methyl-N^7-(6-trifluoromethyl-pyridin-3-yl)-thiazolo[5,4-d]pyrimidine-2,7-diamine], the IC50 (human TRPV1) is reported as 18 nM and the IC50 (rat TRPV1) is reported as 22 nM.
For `Cc1nc(Nc2ccc(SC(F)(F)F)c(Cl)c2)c2nc(Nc3c(Cl)cccc3Cl)sc2n1` [Example 135, N^7-(3-Chloro-4-trifluoromethylsulfanyl-phenyl)-N^2-(2,6-dichloro-phenyl)-5-methyl-thiazolo[5,4-d]pyrimidine-2,7-diamine], the IC50 (human TRPV1) was 203 nM and the IC50 (rat TRPV1) was 112 nM.
Compound `Cc1cccc(C)c1Nc1nc2c(Nc3ccc(OC(F)(F)F)cc3)ncnc2s1` [Example 28, N^2-(2,6-Dimethyl-phenyl)-N^7-(4-trifluoromethoxy-phenyl)-thiazolo[5,4-d]pyrimidine-2,7-diamine] has an IC50 (human TRPV1) of 81 nM and an IC50 (rat TRPV1) of 39 nM.
Work on `OCc1cc(Cl)c(Nc2nc3c(Nc4ccc(C(F)(F)F)cc4)ncnc3s2)c(Cl)c1` [Example 242, {3,5-Dichloro-4-[7-(4-trifluoromethyl-phenylamino)-thiazolo[5,4-d]pyrimidin-2-ylamino]-phenyl}-methanol] yielded an IC50 (human TRPV1) of 1 nM and an IC50 (rat TRPV1) of 1 nM.
For `Cc1nc(Nc2ccc(C(C)(C)O)cc2)c2nc(Nc3c(Cl)cccc3Cl)sc2n1` [Example 74, 2-{4-[2-(2,6-Dichloro-phenylamino)-5-methyl-thiazolo[5,4-d]pyrimidin-7-ylamino]-phenyl}-propan-2-ol], the IC50 (human TRPV1) was 1 nM and the IC50 (rat TRPV1) was 0.05 nM.
`Cc1cccc(C)c1Nc1nc2c(Nc3ccccc3)ncnc2s1` [Example 147, N^2-(2,6-Dimethyl-phenyl)-N^7-phenyl-thiazolo[5,4-d]pyrimidine-2,7-diamine] showed an IC50 (human TRPV1) of 723 nM and an IC50 (rat TRPV1) of 354 nM.
Compound `CCCCOc1nc(Nc2ccc(C(F)(F)F)cc2)c2nc(Nc3c(Cl)cccc3Cl)sc2n1` [Example 189, 5-Butoxy-N^2-(2,6-dichloro-phenyl)-N^7-(4-trifluoromethyl-phenyl)-thiazolo[5,4-d]pyrimidine-2,7-diamine] has an IC50 (human TRPV1) of 19 nM and an IC50 (rat TRPV1) of 8 nM.
`Cc1cccc(C)c1Nc1nc2c(Nc3ccc(C#N)c(C(F)(F)F)c3)ncnc2s1` [Example 149, 4-[2-(2,6-Dimethyl-phenylamino)-thiazolo[5,4-d]pyrimidin-7-ylamino]-2-trifluoromethyl-benzonitrile] showed an IC50 (human TRPV1) of 737 nM and an IC50 (rat TRPV1) of 257 nM.
`Clc1cccc(Cl)c1Nc1nc2c(Nc3ccccc3)ncnc2s1` [Example 204, N^2-(2,6-Dichloro-phenyl)-N^7-phenyl-thiazolo[5,4-d]pyrimidine-2,7-diamine] showed an IC50 (human TRPV1) of 213 nM and an IC50 (rat TRPV1) of 226 nM.
`Cc1cc(C(F)(F)F)ccc1Nc1ncnc2sc(Nc3c(C)cccc3C)nc12` [Example 159, N^2-(2,6-Dimethyl-phenyl)-N^7-(2-methyl-4-trifluoromethyl-phenyl)-thiazolo[5,4-d]pyrimidine-2,7-diamine] was tested, and the IC50 (human TRPV1) was > 2220 nM and the IC50 (rat TRPV1) was 1460 nM.
`O=S(=O)(c1ccc(Nc2ncnc3sc(Nc4ccccc4Cl)nc23)cc1)C(F)(F)F` [Example 203, N^2-(2-Chloro-phenyl)-N^7-(4-trifluoromethanesulfonyl-phenyl)-thiazolo[5,4-d]pyrimidine-2,7-diamine] was tested, and the IC50 (human TRPV1) was 48 nM and the IC50 (rat TRPV1) was 76 nM.
`Cc1cccc(C)c1Nc1nc2c(Nc3ccc(S(=O)(=O)N4CCN(C)CC4)cc3)ncnc2s1` [Example 110, N^2-(2,6-Dimethyl-phenyl)-N^7-[4-(4-methyl-piperazine-1-sulfonyl)-phenyl]-thiazolo[5,4-d]pyrimidine-2,7-diamine] was tested, and the IC50 (human TRPV1) was 26 nM and the IC50 (rat TRPV1) was 20 nM.
Work on `FC(F)(F)c1ccc(Nc2ncnc3sc(Nc4ccccc4)nc23)cn1` [Example 21, N^2-Phenyl-N^7-(6-trifluoromethyl-pyridin-3-yl)-thiazolo[5,4-d]pyrimidine-2,7-diamine] yielded an IC50 (human TRPV1) of 557 nM and an IC50 (rat TRPV1) of 299 nM.
`CC(C)OC(=O)C(C)(C)c1ccc(Nc2ncnc3sc(Nc4c(Cl)cccc4Cl)nc23)cc1` [Example 231, 1-Methylethyl 2-[4-({2-[(2,6-dichlorophenyl)amino][1,3]thiazolo[5,4-d]pyrimidin-7-yl}amino)phenyl]-2-methylpropanoate] showed an IC50 (human TRPV1) of 698 nM and an IC50 (rat TRPV1) of 81 nM.
With `Cc1cccc(C)c1Nc1nc2c(Nc3ccc(C(F)(F)F)cn3)ncnc2s1` [Example 176, N^2-(2,6-Dimethyl-phenyl)-N^7-(5-trifluoromethyl-pyridin-2-yl)-thiazolo[5,4-d]pyrimidine-2,7-diamine] the IC50 (human TRPV1) was > 20000 nM and the IC50 (rat TRPV1) was > 20000 nM.
With `Cc1cccc(C)c1Nc1nc2c(Nc3ccc(Cl)c(Cl)c3)ncnc2s1` [Example 34, N^7-(3,4-Dichloro-phenyl)-N^2-(2,6-dimethyl-phenyl)-thiazolo[5,4-d]pyrimidine-2,7-diamine] the IC50 (human TRPV1) was > 6670 nM and the IC50 (rat TRPV1) was > 6670 nM.
In the case of `COc1cc(CNc2ncnc3sc(Nc4c(C)cccc4C)nc23)ccc1O` [Example 38, 4-{[2-(2,6-Dimethyl-phenylamino)-thiazolo[5,4-d]pyrimidin-7-ylamino]-methyl}-2-methoxy-phenol], the IC50 (human TRPV1) is reported as > 20000 nM and the IC50 (rat TRPV1) is reported as 7130 nM.
`Cc1nc(Nc2ccc(C(F)(F)F)cc2)c2nc(Nc3c(C)cccc3C)sc2n1` [Example 245, N^2-(2,6-Dimethyl-phenyl)-5-methyl-N^7-(4-trifluoromethyl-phenyl)-thiazolo[5,4-d]pyrimidine-2,7-diamine] gave an IC50 (human TRPV1) of 6 nM and an IC50 (rat TRPV1) of 5 nM.
In the case of `Cc1noc(C)c1Nc1nc2c(Nc3ccc(C(F)(F)F)nc3)ncnc2s1` [Example 24, N^2-(3,5-Dimethyl-isoxazol-4-yl)-N^7-(6-trifluoromethyl-pyridin-3-yl)-thiazolo[5,4-d]pyrimidine-2,7-diamine], the IC50 (human TRPV1) is reported as 2360 nM and the IC50 (rat TRPV1) is reported as 709 nM.
